Assay results from patent publication US20190125734A1, “COMPOSITION FOR TREATING OR PREVENTING ATOPIC DERMATITIS” (NANOEGG Research Laboratories, Inc., priority 2016, published 2019).
Entries after “also recorded” stand apart in the source; their conditions may differ.

Key:
[1] = tested on: mice with atopic dermatitis outbreak (NC/Nga, mite antigen Biostir AD); assay: Atopic dermatitis score with simultaneous mite antigen induction and test formulation application, Example 5; format: in vivo, mouse; settings: topical 5 times a week for 3 weeks, 12 mM week 1, 24 mM week 2 and thereafter (decamethonium bromide 12 mM, twice a week in last week), induction twice a week
Protocol: (§1) Induction with mite antigens (twice a week) and application of a test formulation (5 times a week) were simultaneously performed for 3 weeks to analyze the effect of suppressing induction of atopic dermatitis. A test formulation was used at 12 mM in week 1, and at 24 mM in week 2 and thereafter. […] A non treatment group (no induction, no application of test formulation) and solvent applied group (with induction, application of purified water) were prepared as controls.
(1) Antagonist and agonist: hexamethonium bromide, suxamethonium chloride (Maruishi Pharmaceutical), and decamethonium bromide (Tokyo Chemical Industry) were used to compare an antagonist and agonist of a nicotinic acetylcholine receptor. […] (3) Number of tertiary amino groups: Hexamethonium bromide has two tertiary amino groups within the molecule. This was compared to hexyltrimethylammonium bromide (Wako Pure Chemical; hereinafter, referred to as Hexyl-TAB) having one tertiary amino group within the molecule and an alkyl group with 6 carbons. (4) Carbon chain length: Hexamethonium bromide was compared with decamethonium bromide (number of carbons 10) which has a carbon chain length that is longer than hexamethonium bromide (number of carbons 6), and compared with tetramethylammonium bromide (Wako Pure Chemical; number of carbons: 1; hereinafter, referred to as TAB), hexyltrimethylammonium bromide (number of carbons: 6; hereinafter, referred to as Hexyl-TAB), and cetyltrimethylammonium bromide (Wako Pure Chemical; number of carbons: 16; hereinafter, referred to as Cetyl-TAB), which have one tertiary amino group within the molecule and a different carbon chain length in the alkyl group.

[2] = Toxicity observed during application, Example 5; format: in vivo, mouse; settings: topical application to NC/Nga mice, 12 mM week 1
Protocol: as §1, with “Mice (NC/Nga, 10 week old) were applied with a mite antigen (Biostir AD) twice a week for 4 weeks to prepare mice with atopic dermatitis outbreak as in Example 1. Induction” for “Induction”, “controls. Scoring was performed in the same manner as Example 1.” for “controls.”

[3] = tested on: atopic dermatitis model mice (NC/Nga, mite antigen Biostir AD); assay: Drug efficacy with dermatitis induction in parallel (AD score, pictures of the back), Example 3; format: in vivo, mouse; settings: male NC/Nga mice, topical 12 mM, days 3, 7, 11
Protocol: Atopic dermatitis model mice were prepared and scored in the same manner as Example 1. The same test formulations as those in Example 1 were used.
Male NC/Nga mice (Charles River Laboratories Japan) induced to have atopic dermatitis were used. A test formulation was applied to the back once a day, 5 days a week (Monday to Friday), for a total of 10 times. 100 μL of the test formulation was applied to the back, and 25 μL was applied to each of the left and right auricles. The back was shaved prior to administration on Monday and Thursday to evaluate dermatitis scores. Atopic dermatitis was then induced only on Mondays every week to maintain dermatitis. Mice were euthanized after 11 days from the initial administration, and then the skin tissue was sampled.

[4] = tested on: skin of atopic dermatitis patients; assay: Replica method for goose bump-like skin symptoms, Example 6; format: in vivo, human; settings: 12 mM applied to back part of the neck of atopic dermatitis patients; 5 to 10 minutes after application vs before
Protocol: Hexamethonium (12 mM) was applied to (back part of) the neck of atopic dermatitis patients to obtain replica images of skin before application and after 5 to 10 minutes from application. The replica images were collected by applying silicon resin (SILFLO) so as to cover the skin with outbreak of atopic dermatitis and peeling of the cured silicon from the skin after 5 minutes. Light was irradiated onto the collected replicas from one direction to compare and examine, and take pictures of, the unevenness of the skin surface.

[5] = tested on: atopic dermatitis model mice (NC/Nga, mite antigen Biostir AD); assay: Therapeutic effect from oral administration, dermatitis scores, Example 8; format: in vivo, mouse; settings: 150 μL of 60 mM once a day, 5 times a week, total 10 times, day 10
Protocol: 10 week old NC/Nga mice (Charles River Laboratories Japan) were used as atopic dermatitis model animals. A mite antigen (Biostir AD, Wako Pure Chemical) was used to induce dermatitis. Model mice were prepared and scored according to the method described in the package insert of Biostir AD (same as Example 1).
As an inhibitor of a nicotinic acetylcholine receptor, hexamethonium bromide (hereinafter, hexamethonium; sigma-aldrich) was used. The inhibitor was dissolved in purified water and prepared to have a final concentration of 60 mM. Purified water (DW) was used as a negative control.
150 μL of a test formulation was orally administered to atopic dermatitis induced mice once a day, 5 times a week, for a total of 10 times. Dermatitis scores were evaluated after 0 and 10 days from administration. Mean change from day 0 was compared. Atopic dermatitis was induced with mite antigens only on Mondays every week to maintain the symptom.

[6] = tested on: atopic dermatitis model mice (NC/Nga, mite antigen Biostir AD); assay: Evaluation of drug efficacy after inducing dermatitis (AD score, pictures of the back), Example 1; format: in vivo, mouse; settings: female NC/Nga mice, topical 12 mM, days 3 and 7
Protocol: 10 week old NC/Nga mice (Charles River Laboratories Japan) were used as atopic dermatitis model animals. A mite (Dermatophagoides farina) antigen, i.e., Biostir AD (Wako Pure Chemical), was used to induce dermatitis. Model mice were prepared by the following procedure.
1. The back of mice was shaved. A hair removal cream was used only for the first time. 2. To destroy the skin barrier, 150 μL of 4% SDS was applied and dried for 2 to 3 hours (this step was omitted for the first time). 3. To stimulate immunity, 100 mg of Biostir AD was applied to the back and the left and right auricles of the mice. 4. These steps were performed twice a week.
Scoring was performed according to the method described in the package insert of Biostir AD. Four endpoints were each evaluated as 0 to 3 points. The total score for the endpoints was used as the AD score. The following Table 1 summarizes the scores for each endpoint.
Acridinium bromide (Wako Pure Chemical) and scopolamine hydrobromide trihydrate (Tokyo Chemical Industry) were used as an inhibitor of a muscarinic acetylcholine receptor. Hexamethonium bromide (sigma-aldrich) and dextromethorphan hydrobromide monohydrate (Wako Pure Chemical) were used as an inhibitor of a nicotinic acetylcholine receptor. Dimethyl sulfoxide (DMSO, Wako Pure Chemical), saline (Otsuka Pharmaceutical), and purified water were used as solvents. […]

mast cells = assay: Activity and migration of mast cells (toluidine blue stain of back skin), Example 2; format: in vivo, mouse; settings: severe area; saline group about 40%
Source text: Solifenacin succinate (Tokyo Chemical Industry), acridinium bromide (Wako Pure Chemical) and scopolamine hydrobromide trihydrate (Tokyo Chemical Industry) were used as an inhibitor of a muscarinic acetylcholine receptor. Tubocurarine chloride pentahydrate (Tokyo Chemical Industry), gallamintriethiodide (sigma-aldrich), hexamethonium bromide (sigma-aldrich), dextromethorphan hydrobromide monohydrate (Wako Pure Chemical), and α-bungarotoxin (alomone labs) were used as an inhibitor of a nicotinic acetylcholine receptor. Dimethyl sulfoxide (DMSO, Wako Pure Chemical) saline (Otsuka Pharmaceutical), and purified water were used as solvents.
The back skin of sampled atopic dermatitis model mice was immobilized with neutral formalin and embedded in paraffin. A 4 μm thick tissue segment was prepared therefrom, and mast cells were stained with toluidine blue stain. The stained tissue segment was captured with a microscope. […] The areas of only collagen fiber sites in the tissue segment images were measured (removing areas of the epidermal layer, mast cells, and muscle cells) and compared the mast cell count per unit area to the degree of degranulation.

Compound	atopic dermatitis score (mean change) relative to solvent administered group (DW) [1]	also measured
CCCCCCCCCCCCCCCC[N+](C)(C)C.[Br-] [Cetyl-TAB, Cetyltrimethylammonium bromide]	exacerbating action	–
NCCCCCCN [HMDA, Hexamethylenediamine]	An effect of suppression was not found	–
CCCCCC[N+](C)(C)C.[Br-] [Hexyl-TAB, Hexyltrimethylammonium Bromide]	effect of suppressing atopic dermatitis, although slightly weaker than hexamethonium bromide; also recorded: effect of suppressing atopic dermatitis	–
C[N+](C)(C)CCOC(=O)CCC(=O)OCC[N+](C)(C)C [Suxamethonium bromide, suxamethonium chloride]	reduce atopic dermatitis scores	–
C[N+](C)(C)CCCCCCCCCC[N+](C)(C)C [decamethonium bromide, Decamethonium Bromide]	reduce atopic dermatitis scores	atopic dermatitis score (mean change) relative to solvent administered group (DW) ([1]; listed as Decamethonium bromide): action to exacerbate atopic dermatitis was confirmed; toxicity [2]: strong toxicity
C[N+](C)(C)CCCCCC[N+](C)(C)C.[Br-].[Br-] [hexamethonium bromide, Hexamethonium Bromide]	elevation in atopic dermatitis scores was suppressed	therapeutic effect (AD scores and ΔAD scores) [3]: relative high therapeutic effect; degree of protrusion of skin pores (replica images) [4]: degree of protrusion of skin pores has subsided to be less goose bump-like; improvement in dermatitis scores (mean change from day 0) [5]: Improvement in the dermatitis scores was observed; therapeutic effect (AD scores and ΔAD scores) [6]: relatively high therapeutic effect
COc1cc2c3cc1Oc1cc(ccc1O)C[C@@H]1c4c(cc(OC)c(O)c4Oc4ccc(cc4)C[C@@H]3N(C)CC2)CC[N+]1(C)C [tubocurarine, Tubocurarine chloride pentahydrate]	–	ratio of degranulated mast cells to all mast cells (mast cells): about 33%
Tetramethylammonium Bromide [TAB]	effect of suppressing atopic dermatitis	–
